Measured values reported in the OPERA property sets (Mansouri et al. 2018).

Details: for log10 BCF / log10 biotransformation half-life (days): fish

Compound	melting point [°C]	boiling point [°C]	further results
CC[C@]1(O)CC[C@H]2[C@@H]3CCC4=CCCC[C@@H]4[C@H]3CC[C@@]21C	77		
Cc1nnc(NS(=O)(=O)c2ccc(N)cc2)s1	208		
Cc1cccc2cccnc12	-80	248	log10 vapour pressure (mmHg): -1.6
CC1(C)O[C@@H]2C[C@H]3[C@@H]4CCC5=CC(=O)C=C[C@]5(C)[C@@]4(F)[C@@H](O)C[C@]3(C)[C@]2(C(=O)CO)O1	293		
CCCCOC(=O)C1(O)c2ccccc2-c2ccccc21	71		
CCCC(C)C(C)CC (centres undefined)		141	
CCCCC(C#N)(Cn1ccnc1)c1ccccc1 (centres undefined)	161		
Cc1ccccc1N	-16.3	200	log10 Henry constant (atm·m³/mol): -5.7; log10 vapour pressure (mmHg): -0.585; ready biodegradability: readily biodegradable
c1ccc2ncccc2c1	-14.8	237	log10 Koc (L/kg): 3.1; log10 vapour pressure (mmHg): -1.22; ready biodegradability: readily biodegradable; log10 BCF: 0.58; log10 biotransformation half-life (days): -1.33
O=C(O)COc1c(Cl)ccc(Cl)c1Cl	148		
C=Cc1ccc(CCl)cc1			ready biodegradability: not readily biodegradable
BrC(Br)(Br)Br	90.1	190	log10 vapour pressure (mmHg): -0.569
C/N=C(\NC)NCc1ccccc1	196		
COc1ccc(C)c([N+](=O)[O-])c1	17	266	
CNC(=O)Oc1ccccc1C1OCCO1	114		log10 Koc (L/kg): 1.6; log10 vapour pressure (mmHg): -6.52
C=CCCCCC=C		116	
ClCC(Br)CBr (centres undefined)	6	196	log10 Koc (L/kg): 1.85; log10 vapour pressure (mmHg): -0.237; ready biodegradability: not readily biodegradable; log10 BCF: 1.06; log10 biotransformation half-life (days): -1.14
Clc1ccc2c(Cl)cc(Cl)c(Cl)c2c1			log10 Koa: 8.13; log10 vapour pressure (mmHg): -5.07
O=C(OOC(=O)c1ccccc1)c1ccccc1	105		ready biodegradability: readily biodegradable
c1ccc2sc(SN(C3CCCCC3)C3CCCCC3)nc2c1	99.8		ready biodegradability: not readily biodegradable
Cc1c(Cl)ccc(O)c1Cl	58	236	
IC1CCCC1		166	
O=C=Nc1ccc(Cl)c(Cl)c1	43		
Cc1cc(Sc2cc(C)c(O)c(C(C)(C)C)c2)cc(C(C)(C)C)c1O	126		
Nc1cccc(Cl)c1	-10.4	230	log10 Henry constant (atm·m³/mol): -6; log10 vapour pressure (mmHg): -1.18; ready biodegradability: not readily biodegradable; log10 BCF: 0.35; log10 biotransformation half-life (days): -0.71
O=Cc1ccc([N+](=O)[O-])o1	35.5	228	ready biodegradability: readily biodegradable

Compound	melting point [°C]	boiling point [°C]	further results
C[C@@H]1Cc2c(Cl)cc(C(=O)N[C@@H](Cc3ccccc3)C(=O)O)c(O)c2C(=O)O1	169		
Clc1ccc(C(c2ccccc2Cl)C(Cl)Cl)cc1 (centres undefined)	77		log10 vapour pressure (mmHg): -5.71; log10 biotransformation half-life (days): 1.65
NS(=O)(=O)c1cc2c(cc1C(F)(F)F)NC(Cc1ccccc1)NS2(=O)=O (centres undefined)	222		
CCCCCCCCCCCCCCCCCCCCCCCCCC(=O)O	88.5		
CCN(CC)c1ccccc1C	-60	209	
CCOP(=S)(OCC)Oc1ccc(=O)n(-c2ccccc2)n1	55		log10 vapour pressure (mmHg): -7.96; log10 BCF: 0.67; log10 biotransformation half-life (days): -0.7
NC(c1ccccc1)c1ccccc1	34	304	
O=C(O)CCCCCCCCCCCCCCCO	98		
COc1ccccc1CC(=O)O	124		
O=C1CN=C(c2ccccc2)c2cc(Cl)ccc2N1CC(F)(F)F	165		
COc1ccc(C(Cl)=C(c2ccc(OC)cc2)c2ccc(OC)cc2)cc1	115		
Cc1ccc(C(C)(C)C)cc1	-52	190	ready biodegradability: readily biodegradable; log10 biotransformation half-life (days): 0.31
O=C(OC[C@H]1O[C@](O)(COC(=O)c2cccnc2)[C@@H](OC(=O)c2cccnc2)[C@@H]1OC(=O)c1cccnc1)c1cccnc1	141		
c1ccc2ocnc2c1	31	182	
CCSc1ccc(C)cc1		220	
CCCc1ccc(OC)cc1		212	
C[Si](C)(C)OS(=O)(=O)C(F)(F)F		140	
Cc1cc(C)cc(Br)c1		204	
N#CSC#N	63.5		
NCCCO	11	188	log10 vapour pressure (mmHg): -1.11
CC12CCC(CC1)C(C)(C)O2	1.5	176	log10 vapour pressure (mmHg): 0.279
CC12CCC(CC1=NO)C2(C)C (centres undefined)	118		
CS/C(C)=N/OC(=O)N(C)SN(C)C(=O)O/N=C(\C)SC	173		log10 Koc (L/kg): 2.54; log10 vapour pressure (mmHg): -4.15
CCCCCCOC(=O)CCCC	-63.1	226	
Cc1cc(O)c(C(C)C)cc1C1(c2cc(C(C)C)c(O)cc2C)OC(=O)c2ccccc21	253		
